Assay results taken from publication PMC5053523, “In Vitro Antibacterial Activity of Rhodanine Derivatives against Pathogenic Clinical Isolates” (PLoS ONE, 2016).
Values after ≈ are worked out from the molar mass of the structure shown. Where two headings read alike, the source gives them in different places.

Tests used:
[1] = tested on: vancomycin resistant enterococci (VRE) E. faecium; experiment: Broth microdilution MIC/MBC, VRE E. faecium; assay type: cell-based; settings: for MIC: read-out: MIC
[2] = tested on: methicillin-resistant Staphylococcus aureus (MRSA); experiment: Broth microdilution MIC/MBC, MRSA; assay type: cell-based
[3] = tested on: B. cereus; experiment: Broth microdilution MIC/MBC, B. cereus; assay type: cell-based; settings: Bacillus cereus; for MBC: read-out: MBC; for MIC: read-out: MIC
Source text: The broth microdilution technique was used, followed by subculturing on agar plates that were rhodanine—free.

[4] = tested on: Bacillus Strains; experiment: Broth microdilution MIC50/MIC90 and MIC range, Bacillus strains panel; assay type: cell-based, Bacillus spp.; settings: 10 Bacillus strains
Source text: The broth microdilution technique was used, followed by subculturing on agar plates that were rhodanine—free. […] The MICs reported represent the lowest concentration of each compound necessary to inhibit bacterial growth and the MBCs represent the lowest concentration required to reduce the initial bacterial inoculum by ≥ 99.9%.

[5] = tested on: Mycobacterium smegmatis; experiment: Broth microdilution MIC/MBC, Mycobacterium smegmatis; assay type: cell-based; settings: Mycolicibacterium smegmatis, ATCC14468, M. Smegmatis ATCC 14468
[6] = tested on: P. aeruginosa; experiment: Broth microdilution MIC, P. aeruginosa; assay type: cell-based; settings: Pseudomonas aeruginosa
[7] = tested on: K. pneumoniae; experiment: Broth microdilution MIC, K. pneumoniae; assay type: cell-based
[8] = tested on: Candida albicans; experiment: MIC against Candida albicans; assay type: cell-based; settings: table prints none, read-out: MIC
[9] = tested on: Acinetobacter baumannii; experiment: MIC with/without sub-MIC colistin, Acinetobacter baumannii; assay type: cell-based
Procedure, shortened: (§1)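 Sub-MIC colistin or PMBN added to broth MIC tests of rhodanines and reference antibiotics against Gram-negative strains; AcrAB efflux-deficient E. coli SM1411ΔacrAB also tested.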

[10] = tested on: Escherichia coli O157:H7; experiment: MIC with/without sub-MIC colistin, Escherichia coli O157:H7; assay type: cell-based
Procedure, shortened: as §1

[11] = tested on: Salmonella Typhimurium; experiment: MIC with/without sub-MIC colistin, Salmonella Typhimurium; assay type: cell-based
Procedure, shortened: as §1

[12] = tested on: Klebsiella pneumoniae; experiment: MIC with/without sub-MIC colistin, Klebsiella pneumoniae; assay type: cell-based
Procedure, shortened: as §1

[13] = tested on: Pseudomonas aeruginosa; experiment: MIC with/without sub-MIC colistin, Pseudomonas aeruginosa; assay type: cell-based
Procedure, shortened: as §1

[14] = tested on: Escherichia coli O157:H7; experiment: MIC with/without PMBN, Escherichia coli O157:H7; assay type: cell-based
Procedure, shortened: as §1

[15] = tested on: Pseudomonas aeruginosa; experiment: MIC with/without PMBN, Pseudomonas aeruginosa; assay type: cell-based
Procedure, shortened: as §1

[16] = tested on: Escherichia coli Δ acrAB; experiment: MIC against E. coli 1411 and AcrAB efflux pump deficient E. coli SM1411Δ acrAB; assay type: cell-based
Procedure, shortened: as §1

[17] = E. faecium HM 968 Strain ERV102
[18] = E. faecium NR31914 Strain E0120
[19] = E. faecium Patient #1–1 NR-31903
[20] = NRS201, B. cereus NRS 201 NR-2488

O=C(O)[C@@H](Cc1ccccc1)N1C(=O)/C(=C/c2cccc(Cc3ccccc3)c2)SC1=S [Rh 7]
MBC ([1]; E. faecium E417 HM-965): 64 µM (≈ 29.4 µg/mL) | MIC ([1]; E. faecium E417 HM-965): 8 µM (≈ 3.68 µg/mL) | MBC ([1]; E. faecium E1071 NR-28978): > 64 µM | MIC ([1]; E. faecium E1071 NR-28978): 16 µM (≈ 7.35 µg/mL) | MBC [1, 17]: > 64 µM | MIC [1, 17]: 16 µM (≈ 7.35 µg/mL) | MBC [1, 18]: 32 µM (≈ 14.7 µg/mL) | MIC [1, 18]: 16 µM (≈ 7.35 µg/mL) | MBC [1, 19]: 16 µM (≈ 7.35 µg/mL) | MIC [1, 19]: 8 µM (≈ 3.68 µg/mL) | MIC50 ([2]; 11 MRSA strains): 8 µM (≈ 3.68 µg/mL) | MIC90 ([2]; 11 MRSA strains): 16 µM (≈ 7.35 µg/mL) | MBC ([2]; MRSA NRS 1): 16 µM (≈ 7.35 µg/mL) | MIC ([2]; MRSA NRS 1): 8 µM (≈ 3.68 µg/mL) | MBC ([2]; MRSA NRS 19): 8 µM (≈ 3.68 µg/mL) | MIC ([2]; MRSA NRS 19): 8 µM (≈ 3.68 µg/mL) | MBC ([2]; MRSA NRS 37): 16 µM (≈ 7.35 µg/mL) | MIC ([2]; MRSA NRS 37): 16 µM (≈ 7.35 µg/mL) | MBC ([2]; MRSA NRS 107): 16 µM (≈ 7.35 µg/mL) | MIC ([2]; MRSA NRS 107): 16 µM (≈ 7.35 µg/mL) | MBC ([2]; MRSA NRS 119): 8 µM (≈ 3.68 µg/mL) | MIC ([2]; MRSA NRS 119): 8 µM (≈ 3.68 µg/mL) | MBC ([2]; MRSA NRS 383): 16 µM (≈ 7.35 µg/mL) | MIC ([2]; MRSA NRS 383): 16 µM (≈ 7.35 µg/mL) | MBC ([2]; MRSA NRS 384): 64 µM (≈ 29.4 µg/mL) | MIC ([2]; MRSA NRS 384): 8 µM (≈ 3.68 µg/mL) | MBC ([2]; MRSA NRS 385): 16 µM (≈ 7.35 µg/mL) | MIC ([2]; MRSA NRS 385): 8 µM (≈ 3.68 µg/mL) | MBC ([2]; MRSA NRS 386): > 64 µM | MIC ([2]; MRSA NRS 386): 8 µM (≈ 3.68 µg/mL) | MBC ([2]; MRSA NRS 387): 8 µM (≈ 3.68 µg/mL) | MIC ([2]; MRSA NRS 387): 8 µM (≈ 3.68 µg/mL) | MBC ([3]; B. cereus BAG1O-2 NR-28582): 4 µM (≈ 1.84 µg/mL) | MIC ([3]; B. cereus BAG1O-2 NR-28582): 4 µM (≈ 1.84 µg/mL) | MBC ([3]; B. cereus BAG1X1-1 NR-28575): 4 µM (≈ 1.84 µg/mL) | MIC ([3]; B. cereus BAG1X1-1 NR-28575): 2 µM (≈ 0.919 µg/mL) | MBC ([3]; B. cereus BAG1X2-1 NR-28578): 4 µM (≈ 1.84 µg/mL) | MIC ([3]; B. cereus BAG1X2-1 NR-28578): 4 µM (≈ 1.84 µg/mL) | MBC ([3]; B. cereus G9241 NR-9564): 8 µM (≈ 3.68 µg/mL) | MIC ([3]; B. cereus G9241 NR-9564): 8 µM (≈ 3.68 µg/mL) | MBC ([3]; B. cereus VD014 NR-22141): 4 µM (≈ 1.84 µg/mL) | MIC ([3]; B. cereus VD014 NR-22141): 4 µM (≈ 1.84 µg/mL) | MBC ([3]; B. cereus VD115 NR-22148): 4 µM (≈ 1.84 µg/mL) | MIC ([3]; B. cereus VD115 NR-22148): 4 µM (≈ 1.84 µg/mL) | MBC ([3]; B. cereus VD148 NR-22150): 4 µM (≈ 1.84 µg/mL) | MIC ([3]; B. cereus VD148 NR-22150): 4 µM (≈ 1.84 µg/mL) | MBC [3, 20]: 4 µM (≈ 1.84 µg/mL) | MIC [3, 20]: 4 µM (≈ 1.84 µg/mL) | MIC50 [4]: 4 µM (≈ 1.84 µg/mL) | MIC90 [4]: 8 µM (≈ 3.68 µg/mL) | MBC ([5]; read-out: MBC): 16 µM (≈ 7.35 µg/mL) | MIC ([5]; read-out: MIC): 16 µM (≈ 7.35 µg/mL) | MIC ([6]; ATCC9721): > 128 µM | MIC ([6]; ATCC15442): > 128 µM | MIC ([7]; K. pneumoniae NR-15417): >128 µM | MIC ([7]; Klebsiella pneumoniae): > 128 µM | MIC ([8]; ATCC10231, C. albicans ATCC 10231, unit from abstract): > 64 µM | MIC ([8]; C. albicans NR 29434, unit from abstract): > 64 µM | MIC ([8]; C. albicans NR 29435, unit from abstract): > 64 µM | MIC ([8]; C. albicans NR29437, unit from abstract): > 64 µM | MIC ([8]; C. albicans NR29438, unit from abstract): > 64 µM | MIC ([8]; C. albicans NR 29446, unit from abstract): 64 µM (≈ 29.4 µg/mL) | MIC ([8]; C. albicans NR 29448, unit from abstract): > 64 µM | MIC ([8]; C. albicans NR 29449, unit from abstract): > 64 µM | MIC ([8]; C. albicans NR 29453, unit from abstract): > 64 µM | MIC ([8]; C. albicans NR 294436, unit from abstract): > 64 µM | MIC ([9]; Acinetobacter baumannii ATCC BAA747, colistin (+) […], read-out: MIC): >64 µM | MIC ([9]; Acinetobacter baumannii ATCC BAA19606, colistin (+) […], read-out: MIC): >64 µM | MIC ([9]; Acinetobacter baumannii, ATCCBAA747): > 128 µM | MIC ([9]; Acinetobacter baumannii, ATCCBAA19606): > 128 µM | MIC ([10]; Escherichia coli O157:H7 ATCC 35150, colistin (+) […], read-out: MIC): >64 µM | MIC ([10]; Escherichia coli O157:H7 ATCC 700728, colistin (+) […], read-out: MIC): >64 µM | MIC ([10]; Escherichia coli, ATCC35150): > 128 µM | MIC ([10]; Escherichia coli, ATCC700728): > 128 µM | MIC ([11]; Salmonella Typhimurium ATCC 700720, colistin (+) […], read-out: MIC): >64 µM | MIC ([11]; Salmonella enterica, ATCC 700720 / TYPHIMURIUM): > 128 µM | MIC ([12]; Klebsiella pneumoniae ATCC BAA 2146, colistin (+) […]): >64 µM | MIC ([12]; Klebsiella pneumoniae, BAA2146): > 128 µM | MIC ([13]; Pseudomonas aeruginosa ATCC 921, colistin (+) […], read-out: MIC): >64 µM | MIC ([13]; Pseudomonas aeruginosa, ATCC921): > 128 µM | MIC ([14]; Escherichia coli O157:H7 ATCC 35150, PMBN (+) 4 μg/mL, read-out: MIC): 8 µM (≈ 3.68 µg/mL) | MIC ([14]; Escherichia coli O157:H7 ATCC 700728, PMBN (+) 4 μg/mL, read-out: MIC): >64 µM | MIC ([14]; Escherichia coli, ATCC35150): > 256 µM | MIC ([14]; Escherichia coli, ATCC700728): > 128 µM | MIC ([15]; Pseudomonas aeruginosa ATCC 9721, PMBN (+) 4 μg/mL, read-out: MIC): >64 µM | MIC ([15]; Pseudomonas aeruginosa, ATCC9721): > 128 µM | MIC ([16]; E.coli 1411): > 64 µM | MIC ([16]; E.coli 1411 SM (Δ acrAB, AcrAB efflux pump deficient)): > 64 µM
